Tests used:
Assay in all cases: relative viability (nuclei count vs DMSO), 5 days (fraction); higher = more cells survive
[1] = compound: Nc1ccn([C@@H]2O[C@H](CO)[C@@H](O)C2(F)F)c(=O)n1 [Gemcitabine]
Summary of the method: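 Viability was read as treated-well nuclei divided by vehicle-well nuclei, using the median across plates. Lung cancer cell lines in 1536-well plates were kept overnight at 37 °C, pinned with five √10-spaced library-drug doses, and after 5 days were Hoechst-stained, imaged at 4× and counted in MetaXpress. Plates passed only with control CV below 25% and at least one doubling.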

[2] = compound: Nc1ccn([C@@H]2O[C@H](CO)[C@@H](O)C2(F)F)c(=O)n1 [Gemcitabine] + CC1(C)CCC(c2ccc(Cl)cc2)=C(CN2CCN(c3ccc(C(=O)NS(=O)(=O)c4ccc(N[C@H](CCN5CCOCC5)CSc5ccccc5)c(S(=O)(=O)C(F)(F)F)c4)cc3)CC2)C1 [Navitoclax] (partner 0.5 µM)
Summary of the method: (§1)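 A single step with final 0.05% Triton X-100, 1% formaldehyde and 1 ug/ml Hoechst fixed the cells and stained nuclei 5 days after treatment. Lung cancer cell lines in 1536-well plates had been treated by pin tool the day after seeding with one drug alone or a fixed anchor-drug dose plus five library-drug doses (not always all listed) in √10 steps, and nuclei were counted on 4× images. Relative viability is the ratio of nuclei in treated wells to nuclei in vehicle wells, taken as the median of duplicate plates.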

[3] = compound: Nc1ccn([C@@H]2O[C@H](CO)[C@@H](O)C2(F)F)c(=O)n1 [Gemcitabine] + Cc1cc(Nc2cc(N3CCN(C)CC3)nc(Sc3ccc(NC(=O)C4CC4)cc3)n2)n[nH]1 [Tozasertib] (partner 0.1 µM)
Summary of the method: as §1

[4] = compound: Nc1ccn([C@@H]2O[C@H](CO)[C@@H](O)C2(F)F)c(=O)n1 [Gemcitabine] + N=C(N)NC(=N)NCCc1ccccc1 [Phenformin] (partner 250 µM)
Summary of the method: as §1

Row | Cell Line | relative viability ([1]; 0.001 µM) | relative viability ([1]; 0.003162 µM) | relative viability ([1]; 0.01 µM) | relative viability ([1]; 0.03162 µM) | relative viability ([1]; 0.1 µM) | relative viability ([2]; first compound 0.001 µM) | relative viability ([2]; first compound 0.003162 µM) | relative viability ([2]; first compound 0.01 µM) | relative viability ([2]; first compound 0.03162 µM) | relative viability ([2]; first compound 0.1 µM) | relative viability ([3]; first compound 0.001 µM) | relative viability ([3]; first compound 0.003162 µM) | relative viability ([3]; first compound 0.01 µM) | relative viability ([3]; first compound 0.03162 µM) | relative viability ([3]; first compound 0.1 µM) | relative viability ([4]; first compound 0.001 µM) | relative viability ([4]; first compound 0.003162 µM) | relative viability ([4]; first compound 0.01 µM) | relative viability ([4]; first compound 0.03162 µM) | relative viability ([4]; first compound 0.1 µM)
1 | LOU-NH91 | 0.982 | 0.788 | 0.585 | 0.338 | 0.301 | 0.717 | 0.448 | 0.292 | 0.213 | 0.213 | 0.699 | 0.578 | 0.415 | 0.211 | 0.146 | 0.723 | 0.498 | 0.442 | 0.225 | 0.21
2 | LU99A | 0.864 | 1.08 | 0.932 | 1.01 | 0.918 | 0.875 | 0.976 | 0.667 | 0.871 | 0.474 | 0.26 | 0.322 | 0.294 | 0.327 | 0.265 | 0.857 | 0.949 | 0.805 | 0.801 | 0.789
3 | LXF-289 | 1.01 | 0.977 | 0.826 | 0.206 | 0.123 | 0.934 | 0.925 | 0.655 | 0.084 | 0.0735 | 0.254 | 0.199 | 0.111 | 0.0735 | 0.0697 | 0.517 | 0.445 | 0.263 | 0.0911 | 0.0812
4 | NCI-H23 | 0.898 | 0.299 | 0.144 | 0.146 | 0.139 | 0.866 | 0.245 | 0.125 | 0.139 | 0.124 | 0.688 | 0.225 | 0.114 | 0.129 | 0.114 | 0.71 | 0.491 | 0.144 | 0.136 | 0.135
5 | NCI-H322M | 0.813 | 0.375 | 0.295 | 0.281 | 0.304 | 0.96 | 0.52 | 0.286 | 0.207 | 0.228 | 0.459 | 0.407 | 0.288 | 0.316 | 0.283 | 0.635 | 0.378 | 0.288 | 0.334 | 0.268
6 | NCI-H441 | 0.993 | 0.63 | 0.292 | 0.13 | 0.139 | 0.348 | 0.211 | 0.171 | 0.189 | 0.102 | 0.569 | 0.394 | 0.25 | 0.196 | 0.197 | 0.808 | 0.552 | 0.269 | 0.204 | 0.176
7 | NCI-H460 | 1.03 | 0.963 | 0.774 | 0.0431 | 0.0112 | 1.09 | 1.05 | 0.533 | 0.0127 | 0.0085 | 0.535 |  | 0.299 | 0.0246 | 0.0096 | 0.589 | 0.565 | 0.0724 | 0.0156 | 0.0098
8 | NCI-H520 | 1.05 | 0.942 | 0.43 | 0.22 | 0.165 | 1.23 | 1.17 | 0.35 | 0.205 | 0.158 | 0.422 | 0.446 | 0.316 | 0.208 | 0.239 | 0.536 | 0.554 | 0.225 | 0.163 | 0.154

From the supplement of paper PMC10307832
